Assay results published in patent US10130693B2, “Peptides, combination of peptides and scaffolds for use in immunotherapeutic treatment of various cancers” (Immatics Biotechnologies GmbH, priority 2015, dated 2018).

System: HLA-A*24
Assay: MHC binding assay, UV-ligand exchange with beta2m ELISA (exchange yield), HLA-A*24
Design: species or system human
Settings: binding to HLA-A*24, UV-ligand exchange
Description: Candidate peptides for T cell based therapies according to the present invention were further tested for their MHC binding capacity (affinity). The individual peptide-MHC complexes were produced by UV-ligand exchange, where a UV-sensitive peptide is cleaved upon UV-irradiation, and exchanged with the peptide of interest as analyzed. Only peptide candidates that can effectively bind and stabilize the peptide-receptive MHC molecules prevent dissociation of the MHC complexes. To determine the yield of the exchange reaction, an ELISA was performed based on the detection of the light chain (β2m) of stabilized MHC complexes. The assay was performed as generally described in Rodenko et al. (Rodenko et al., 2006).
96 well MAXISorp plates (NUNC) were coated over night with 2 ug/ml streptavidin in PBS at room temperature, washed 4× and blocked for 1 h at 37° C. in 2% BSA containing blocking buffer. […] Peptide-MHC monomers of the UV-exchange reaction were diluted 100 fold in blocking buffer. Samples were incubated for 1 h at 37° C., washed four times, incubated with 2 ug/ml HRP conjugated anti-β2m for 1h at 37° C., washed again and detected with TMB solution that is stopped with […]. Absorption was measured at 450 nm. Candidate peptides that show a high exchange yield (preferably higher than 50%, most preferred higher than 75%) are generally preferred for a generation and production of antibodies or fragments thereof, and/or T cell receptors or fragments thereof, as they show sufficient avidity to the MHC molecules and prevent dissociation of the MHC complexes.

Peptide exchange (MHC class I binding score, peptide exchange yield) | Substance
++ (20%-49% = ++) | 309 (KYYRQTLLF; listed as Homo sapiens) [compound 309]
++ (20%-49% = ++) | 362 (VYNYAEQTL; listed as Homo sapiens) [compound 362]
+++ (50%-75% = +++) | 303 (LYSVIKEDF; listed as Homo sapiens) [compound 303]
+++ (50%-75% = +++) | 355 (IYVTGGHLF; listed as Homo sapiens) [compound 355]
+++ (50%-75% = +++) | 383 (RYKPGEPITF; listed as Homo sapiens) [compound 383]
+++ (50%-75% = +++) | 370 (RFIGIPNQF; listed as Homo sapiens) [compound 370]
+++ (50%-75% = +++) | 306 (VYPAEQPQI; listed as Homo sapiens) [compound 306]
+++ (50%-75% = +++) | 368 (KYQNVKHNL; listed as Homo sapiens) [compound 368]
++++ (>=75% = ++++) | 298 (AYKSEVVYF; listed as Homo sapiens) [compound 298]
+++ (50%-75% = +++) | 347 (VYAEVNSL; listed as Homo sapiens) [compound 347]
+++ (50%-75% = +++) | 310 (IYAPTLLVF; listed as Homo sapiens) [compound 310]
+++ (50%-75% = +++) | 308 (TFDGHGVFF; listed as Homo sapiens) [compound 308]
+++ (50%-75% = +++) | 294 (RFPVQGTVTF; listed as Homo sapiens) [compound 294]
+++ (50%-75% = +++) | 386 (TFSDVEAHF; listed as Homo sapiens) [compound 386]
+++ (50%-75% = +++) | 352 (QYGGDLTNTF; listed as Homo sapiens) [compound 352]
+++ (50%-75% = +++) | 307 (GYAFTLPLF; listed as Homo sapiens) [compound 307]
+++ (50%-75% = +++) | 378 (VYIAELEKI; listed as Homo sapiens) [compound 378]
++++ (>=75% = ++++) | 296 (SYQVIFQHF; listed as Homo sapiens) [compound 296]
++++ (>=75% = ++++) | 290 (KYGDFKLLEF; listed as Homo sapiens) [compound 290]
+++ (50%-75% = +++) | 348 (IYLEHTESI; listed as Homo sapiens) [compound 348]
+++ (50%-75% = +++) | 361 (TYADIGGLDNQI; listed as Homo sapiens) [compound 361]
+++ (50%-75% = +++) | 343 (NYLGGTSTI; listed as Homo sapiens) [compound 343]
+++ (50%-75% = +++) | 300 (TYPSQLPSL; listed as Homo sapiens) [compound 300]
++++ (>=75% = ++++) | 313 (KYTHFIQSF; listed as Homo sapiens) [compound 313]
+++ (50%-75% = +++) | 312 (SYTSVLSRL; listed as Homo sapiens) [compound 312]

Second part, the substance before the results:

Substance | Peptide exchange (MHC class I binding score, peptide exchange yield)
169 (NYITGKGDVF; listed as Homo sapiens) [compound 169] | +++ (50%-75% = +++)
249 (RYHPTTCTI; listed as Homo sapiens) [compound 249] | ++++ (>=75% = ++++)
250 (KYPDIASPTF; listed as Homo sapiens) [compound 250] | ++ (20%-49% = ++)
284 (DYLKDPVTI; listed as Homo sapiens) [compound 284] | +++ (50%-75% = +++)
202 (RYVEGIVSL; listed as Homo sapiens) [compound 202] | +++ (50%-75% = +++)
241 (SYVKVLHHL; listed as Homo sapiens) [compound 241] | +++ (50%-75% = +++)
208 (TYLEKIDGF; listed as Homo sapiens) [compound 208] | ++++ (>=75% = ++++)
196 (GYIRGSWQF; listed as Homo sapiens) [compound 196] | ++++ (>=75% = ++++)
195 (AYIKGGWIL; listed as Homo sapiens) [compound 195] | +++ (50%-75% = +++)
264 (LYTETRLQF; listed as Homo sapiens) [compound 264] | ++++ (>=75% = ++++)
128 (VYPFDWQYI; listed as Homo sapiens) [compound 128] | ++++ (>=75% = ++++)
233 (QYLTAAALHNL; listed as Homo sapiens) [compound 233] | +++ (50%-75% = +++)
273 (IYGEKLQFIF; listed as Homo sapiens) [compound 273] | +++ (50%-75% = +++)
237 (KYVGQLAVL; listed as Homo sapiens) [compound 237] | +++ (50%-75% = +++)
260 (VYMNVMTRL; listed as Homo sapiens) [compound 260] | ++++ (>=75% = ++++)
185 (QYLVHVNDL; listed as Homo sapiens) [compound 185] | ++++ (>=75% = ++++)
246 (KYLSVQLTL; listed as Homo sapiens) [compound 246] | ++ (20%-49% = ++)
108 (PYLVVIHTL; listed as Homo sapiens) [compound 108] | +++ (50%-75% = +++)
234 (SYLPAIWLL; listed as Homo sapiens) [compound 234] | +++ (50%-75% = +++)

Substance | Peptide exchange (MHC class I binding score, peptide exchange yield)
178 (NYSSAVQKF; listed as Homo sapiens) [compound 178] | +++ (50%-75% = +++)
269 (QYPYLQAFF; listed as Homo sapiens) [compound 269] | +++ (50%-75% = +++)
276 (QYLDVLHAL; listed as Homo sapiens) [compound 276] | ++++ (>=75% = ++++)
281 (NYSPGLVSLIL; listed as Homo sapiens) [compound 281] | +++ (50%-75% = +++)
153 (VYVPFGGKSMITF; listed as Homo sapiens) [compound 153] | ++++ (>=75% = ++++)
188 (GYKTFFNEF; listed as Homo sapiens) [compound 188] | +++ (50%-75% = +++)
146 (NYYERIHAL; listed as Homo sapiens) [compound 146] | +++ (50%-75% = +++)
265 (SYLNEAFSF; listed as Homo sapiens) [compound 265] | ++++ (>=75% = ++++)
272 (RYVFPLPYL; listed as Homo sapiens) [compound 272] | ++++ (>=75% = ++++)
236 (VYLPKIPSW; listed as Homo sapiens) [compound 236] | +++ (50%-75% = +++)
243 (SYLELANTL; listed as Homo sapiens) [compound 243] | +++ (50%-75% = +++)
255 (VYQKIILKF; listed as Homo sapiens) [compound 255] | +++ (50%-75% = +++)
218 (LYSELNKWSF; listed as Homo sapiens) [compound 218] | +++ (50%-75% = +++)
184 (IYSVGAFENF; listed as Homo sapiens) [compound 184] | ++++ (>=75% = ++++)
204 (EYLSTCSKL; listed as Homo sapiens) [compound 204] | +++ (50%-75% = +++)
263 (RYILENHDF; listed as Homo sapiens) [compound 263] | +++ (50%-75% = +++)
213 (SYAPPSEDLFL; listed as Homo sapiens) [compound 213] | ++ (20%-49% = ++)
239 (VYAIFRILL; listed as Homo sapiens) [compound 239] | +++ (50%-75% = +++)
